Experimental data from ChEMBL document CHEMBL4229455, “Synthesis and anticancer activity of novel bisindolylhydroxymaleimide derivatives with potent GSK-3 kinase inhibition” (Bioorg Med Chem, 2018).

Assays:
SK-MEL-5 = assay: Cytotoxicity against human SK-MEL-5 cells assessed as cell growth at 10 uM after 48 hrs by SRB assay relative to control; assay type: functional; conditions: SK-MEL-5, 48 h, read-out: Activity
CAKI-1 = assay: Cytotoxicity against human Caki1 cells assessed as cell growth at 10 uM after 48 hrs by SRB assay relative to control; assay type: functional; conditions: CAKI-1, 48 h, read-out: Activity
Sus scrofa domesticus = species on record: Sus scrofa domesticus; assay: Inhibition of domestic porcine brain full length […] assessed as residual activity at 10 uM using RRKHAAIGSpAYSITA as substrate in presence of [gamma-33P]ATP
OVCAR-5 = assay: Cytotoxicity against human OVCAR5 cells assessed as cell growth at 10 uM after 48 hrs by SRB assay relative to control; assay type: functional; conditions: OVCAR-5, 48 h, read-out: Activity
SNB-75 = assay: Cytotoxicity against human SNB75 cells assessed as cell growth at 10 uM after 48 hrs by SRB assay relative to control; assay type: functional; conditions: SNB-75, 48 h, read-out: Activity
MDA-MB-435 = assay: Cytotoxicity against human MDA-MB-435 cells assessed as cell growth at 10 uM after 48 hrs by SRB assay relative to control; assay type: functional; conditions: MDA-MB-435, 48 h, read-out: Activity
HCC 2998 = assay: Cytotoxicity against human HCC2998 cells assessed as cell growth at 10 uM after 48 hrs by SRB assay relative to control; assay type: functional; conditions: HCC 2998, 48 h, read-out: Activity
SF-539 = assay: Cytotoxicity against human SF539 cells assessed as cell growth at 10 uM after 48 hrs by SRB assay relative to control; assay type: functional; conditions: SF-539, 48 h, read-out: Activity
[1] = target: CDK2/Cyclin A2 (Homo sapiens) (UniProt P24941+P20248); assay: Inhibition of full length human CDK2/cyclin A assessed as residual activity at 10 uM using histone H1 as substrate in presence of [gamma-33P]ATP; assay type: protein-complex assay
Malme-3M = assay: Cytotoxicity against human MALME-3M cells assessed as cell growth at 10 uM after 48 hrs by SRB assay relative to control; assay type: functional; conditions: read-out: Activity
SW-620 = assay: Cytotoxicity against human SW620 cells assessed as cell growth at 10 uM after 48 hrs by SRB assay relative to control; assay type: functional; conditions: SW-620, 48 h, read-out: Activity
CCRF-CEM = assay: Cytotoxicity against human CCRF-CEM cells assessed as cell growth at 10 uM after 48 hrs by SRB assay relative to control; assay type: functional; conditions: read-out: Activity
IGROV-1 = assay: Cytotoxicity against human IGROV1 cells assessed as cell growth at 10 uM after 48 hrs by SRB assay relative to control; assay type: functional; conditions: IGROV-1, 48 h, read-out: Activity
U-251 = assay: Cytotoxicity against human U251 cells assessed as cell growth at 10 uM after 48 hrs by SRB assay relative to control; assay type: functional; conditions: U-251, 48 h, read-out: Activity
SK-MEL-28 = assay: Cytotoxicity against human SK-MEL-28 cells assessed as cell growth at 10 uM after 48 hrs by SRB assay relative to control; assay type: functional; conditions: SK-MEL-28, 48 h, read-out: Activity
[2] = target: Glycogen synthase kinase-3 (Sus scrofa, UniProt B2LUN4+I6LNT8); assay: Inhibition of domestic porcine brain full length GSK-3alpha/beta using GS-1 as substrate in presence of [gamma-33P]ATP; design: species or system Sus scrofa domesticus
[3] = target: Cyclin-dependent kinase 5/CDK5 activator 1 (Homo sapiens) (UniProt Q00535+Q15078); assay: Inhibition of recombinant full length human CDK5/p25 expressed in bacteria assessed as residual activity at 10 uM using histone H1 as substrate in presence of [gamma-33P]ATP
[4] = target: Serine/threonine-protein kinase pim-1 (Homo sapiens, UniProt P11309); assay: Inhibition of recombinant full length human PIM1 expressed in bacteria assessed as residual activity at 10 uM using histone H1 as substrate in presence of [gamma-33P]ATP
SF-268 = assay: Cytotoxicity against human SF268 cells assessed as cell growth at 10 uM after 48 hrs by SRB assay relative to control; assay type: functional; conditions: SF-268, 48 h, read-out: Activity
MDA-MB-231 = assay: Cytotoxicity against human MDA-MB-231 cells assessed as cell growth at 10 uM after 48 hrs by SRB assay relative to control; assay type: functional; conditions: MDA-MB-231, 48 h, read-out: Activity
NCI-H522 = assay: Cytotoxicity against human NCI-H522 cells assessed as cell growth at 10 uM after 48 hrs by SRB assay relative to control; assay type: functional; conditions: NCI-H522, 48 h, read-out: Activity
[5] = target: Receptor-interacting serine/threonine-protein kinase 3 (Homo sapiens, UniProt Q9Y572); assay: Inhibition of recombinant full length human RIPK3 expressed in baculovirus infected Sf9 insect cells assessed as residual activity at 10 uM using MBP as substrate in presence of [gamma-33P]ATP
SNB-19 = assay: Cytotoxicity against human SNB19 cells assessed as cell growth at 10 uM after 48 hrs by SRB assay relative to control; assay type: functional; conditions: SNB-19, 48 h, read-out: Activity
[6] = target: CDK9/cyclin T1 (Homo sapiens) (UniProt O60563+P50750); assay: Inhibition of recombinant full length human CDK9/cyclin T expressed in baculovirus infected Sf9 insect cells assessed as residual activity at 10 uM using YSPTSPSYSPTSPSYSPTSPSKKKK as substrate in presence of [gamma-33P]ATP
COLO 205 = assay: Cytotoxicity against human COLO205 cells assessed as cell growth at 10 uM after 48 hrs by SRB assay relative to control; assay type: functional; conditions: COLO 205, 48 h, read-out: Activity
KM12 = assay: Cytotoxicity against human KM12 cells assessed as cell growth at 10 uM after 48 hrs by SRB assay relative to control; assay type: functional; conditions: KM12, 48 h, read-out: Activity
DU-145 = assay: Cytotoxicity against human DU145 cells assessed as cell growth at 10 uM after 48 hrs by SRB assay relative to control; assay type: functional; conditions: DU-145, 48 h, read-out: Activity
NCI/ADR-RES = assay: Cytotoxicity against human NCI-ADR-RES cells assessed as cell growth at 10 uM after 48 hrs by SRB assay relative to control; assay type: functional; conditions: read-out: Activity
CDK9/cyclin T1 = CDK9/cyclin T1 (Homo sapiens, UniProt P50750); assay: Inhibition of recombinant full length human CDK9/cyclin T expressed in baculovirus infected Sf9 insect cells using YSPTSPSYSPTSPSYSPTSPSKKKK as substrate in presence of [gamma-33P]ATP
MDA-MB-468 = assay: Cytotoxicity against human MDA-MB-468 cells assessed as cell growth at 10 uM after 48 hrs by SRB assay relative to control; assay type: functional; conditions: MDA-MB-468, 48 h, read-out: Activity

Sequence of Cyclin-dependent kinase 5/CDK5 activator 1 (Homo sapiens) (Q00535 whole entry): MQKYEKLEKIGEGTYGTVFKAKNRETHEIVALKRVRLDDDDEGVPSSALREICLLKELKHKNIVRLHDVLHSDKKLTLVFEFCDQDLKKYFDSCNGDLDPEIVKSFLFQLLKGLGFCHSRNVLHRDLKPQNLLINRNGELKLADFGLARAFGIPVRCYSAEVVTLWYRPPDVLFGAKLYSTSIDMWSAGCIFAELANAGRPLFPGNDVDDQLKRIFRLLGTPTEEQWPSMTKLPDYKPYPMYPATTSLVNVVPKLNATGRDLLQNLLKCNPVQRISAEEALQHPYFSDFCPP
Sequence of Cyclin-dependent kinase 5/CDK5 activator 1 (Homo sapiens) (Q15078 99-307 partner limits assumed): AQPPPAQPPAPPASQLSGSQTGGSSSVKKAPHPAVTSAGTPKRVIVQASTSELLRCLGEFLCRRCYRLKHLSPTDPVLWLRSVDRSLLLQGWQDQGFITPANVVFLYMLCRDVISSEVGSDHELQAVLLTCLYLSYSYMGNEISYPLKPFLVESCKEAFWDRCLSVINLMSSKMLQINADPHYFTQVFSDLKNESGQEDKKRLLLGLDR
Sequence of Receptor-interacting serine/threonine-protein kinase 3 (Q9Y572 whole entry, looked up): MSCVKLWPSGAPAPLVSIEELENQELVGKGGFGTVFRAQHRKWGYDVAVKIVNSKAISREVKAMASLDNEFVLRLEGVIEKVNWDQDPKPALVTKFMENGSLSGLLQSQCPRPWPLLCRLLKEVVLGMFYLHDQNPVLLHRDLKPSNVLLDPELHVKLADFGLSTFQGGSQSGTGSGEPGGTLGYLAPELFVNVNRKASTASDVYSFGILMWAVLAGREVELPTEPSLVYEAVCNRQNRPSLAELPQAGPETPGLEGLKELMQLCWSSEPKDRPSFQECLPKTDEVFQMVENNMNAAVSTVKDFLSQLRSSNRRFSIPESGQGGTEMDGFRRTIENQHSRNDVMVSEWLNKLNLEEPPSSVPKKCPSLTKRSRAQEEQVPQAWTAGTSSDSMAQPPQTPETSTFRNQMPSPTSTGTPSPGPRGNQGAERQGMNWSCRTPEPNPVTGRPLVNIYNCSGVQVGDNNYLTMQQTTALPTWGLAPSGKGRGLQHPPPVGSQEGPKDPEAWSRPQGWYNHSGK
Sequence of Serine/threonine-protein kinase pim-1 (P11309 whole entry, looked up): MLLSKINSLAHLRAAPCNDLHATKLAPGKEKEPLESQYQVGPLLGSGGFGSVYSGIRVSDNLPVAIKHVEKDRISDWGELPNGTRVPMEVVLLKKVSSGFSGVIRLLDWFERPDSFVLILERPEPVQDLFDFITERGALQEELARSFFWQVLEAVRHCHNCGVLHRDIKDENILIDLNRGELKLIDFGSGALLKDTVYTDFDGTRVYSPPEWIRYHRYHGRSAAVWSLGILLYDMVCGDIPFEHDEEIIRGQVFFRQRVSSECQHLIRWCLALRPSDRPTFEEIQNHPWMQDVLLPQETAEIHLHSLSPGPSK
Sequence of CDK9/cyclin T1 (O60563 whole entry): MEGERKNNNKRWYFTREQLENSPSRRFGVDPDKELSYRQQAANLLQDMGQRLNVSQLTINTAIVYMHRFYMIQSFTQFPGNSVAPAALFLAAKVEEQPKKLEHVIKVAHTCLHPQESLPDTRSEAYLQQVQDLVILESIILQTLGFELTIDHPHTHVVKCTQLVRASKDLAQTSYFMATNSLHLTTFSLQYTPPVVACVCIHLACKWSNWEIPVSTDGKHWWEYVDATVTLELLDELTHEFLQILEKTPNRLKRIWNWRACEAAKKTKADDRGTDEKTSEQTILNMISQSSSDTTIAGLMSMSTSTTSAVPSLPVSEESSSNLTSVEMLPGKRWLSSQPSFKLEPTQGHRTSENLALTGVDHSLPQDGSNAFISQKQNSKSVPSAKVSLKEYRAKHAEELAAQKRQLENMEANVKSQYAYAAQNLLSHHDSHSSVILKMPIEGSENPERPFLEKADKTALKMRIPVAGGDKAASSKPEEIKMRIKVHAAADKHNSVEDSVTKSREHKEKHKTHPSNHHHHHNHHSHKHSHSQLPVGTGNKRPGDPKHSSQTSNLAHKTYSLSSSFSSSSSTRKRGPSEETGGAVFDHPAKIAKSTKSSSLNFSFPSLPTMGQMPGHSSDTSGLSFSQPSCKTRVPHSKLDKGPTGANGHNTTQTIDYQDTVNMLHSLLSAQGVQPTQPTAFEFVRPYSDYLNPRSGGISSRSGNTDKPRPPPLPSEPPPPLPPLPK
Sequence of CDK9/cyclin T1 (P50750 whole entry): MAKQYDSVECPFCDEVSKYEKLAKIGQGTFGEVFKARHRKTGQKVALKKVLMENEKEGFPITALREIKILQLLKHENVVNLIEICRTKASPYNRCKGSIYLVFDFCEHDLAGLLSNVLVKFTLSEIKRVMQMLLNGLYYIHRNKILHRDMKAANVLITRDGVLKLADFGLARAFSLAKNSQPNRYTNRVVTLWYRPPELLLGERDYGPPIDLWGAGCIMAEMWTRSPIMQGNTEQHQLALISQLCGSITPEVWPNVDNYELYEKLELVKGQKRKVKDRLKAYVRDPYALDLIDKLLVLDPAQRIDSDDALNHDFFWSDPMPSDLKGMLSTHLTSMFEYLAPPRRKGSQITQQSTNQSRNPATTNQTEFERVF

Compound | growth at 10 µM (SK-MEL-5) [%] | growth at 10 µM (CAKI-1) [%] | Activity (Sus scrofa domesticus) [%] | growth at 10 µM (OVCAR-5) [%] | growth at 10 µM (SNB-75) [%] | growth at 10 µM (MDA-MB-435) [%] | growth at 10 µM (HCC 2998) [%] | growth at 10 µM (SF-539) [%] | Activity [1] [%] | growth at 10 µM (SW-620) [%] | growth at 10 µM (CCRF-CEM) [%] | growth at 10 µM (IGROV-1) [%] | growth at 10 µM (U-251) [%] | growth at 10 µM (SK-MEL-28) [%] | IC50 [2] [nM] | Activity [3] [%] | Activity [4] [%] | growth at 10 µM (SF-268) [%] | growth at 10 µM (MDA-MB-231) [%] | Activity [5] [%] | other results
CC(C)n1cc(C2=C(c3c[nH]c4ccccc34)C(=O)N(O)C2=O)c2ccccc21 | 98.5 | 78.3 | 72 | 105 | 82.6 | 102 | 105 | 97.3 | 71 | 106 | 95.8 | 111 | 100 | 116 | 1500 | 71 | 24 | 104 | 89.5 | 97 | growth at 10 µM (Malme-3M): 102%; growth at 10 µM (NCI-H522): 76.4%; growth at 10 µM (SNB-19): 111%; Activity [6]: 44%; growth at 10 µM (COLO 205): 98.5%; growth at 10 µM (KM12): 88.3%; growth at 10 µM (DU-145): 107%; growth at 10 µM (NCI/ADR-RES): 102%; IC50 (CDK9/cyclin T1): > 10000 nM
O=C(O)CCCCCn1cc(C2=C(c3c[nH]c4ccccc34)C(=O)N(O)C2=O)c2ccccc21 | 93.9 | 92.2 | 83 | 106 | 86 | 102 | 119 | 96.3 | 66 | 95.3 | 96.2 | 93.4 | 102 | 111 | 750 | 60 | 53 | 98.3 | 92.6 | 100 | growth at 10 µM (NCI-H522): 88.3%; growth at 10 µM (SNB-19): 107%; growth at 10 µM (MDA-MB-468): 104%; Activity [6]: 19%; growth at 10 µM (COLO 205): 102%; growth at 10 µM (KM12): 95.6%; growth at 10 µM (DU-145): 104%; growth at 10 µM (NCI/ADR-RES): 106%; IC50 (CDK9/cyclin T1): 2000 nM
Cn1cc(C2=C(c3cn(CCCCCC#N)c4ccccc34)C(=O)N(O)C2=O)c2ccccc21 | 78.8 | 81.3 | 88 | 117 | 68 | 68.1 | 111 | 98.4 | 64 | 101 | 83.3 | 93.8 | 102 | 109 | 270 | 49 | 52 | 94.9 | 58.9 | 105 | growth at 10 µM (SNB-19): 104%; growth at 10 µM (MDA-MB-468): 87.5%; Activity [6]: 17%; growth at 10 µM (COLO 205): 92.6%; growth at 10 µM (KM12): 88.2%; growth at 10 µM (DU-145): 106%; growth at 10 µM (NCI/ADR-RES): 102%; IC50 (CDK9/cyclin T1): 2100 nM
